Data set [1] deals with ZEAMX. The data set can be described thus: Cold stress test on crop plants in greenhouse, spray application. The settings on record: efficacy = percentage reduction in intensity of damage, mean of three results. It counts as in vivo, Zea mays. The protocol:
Seeds of monocotyledonous and dicotyledonous crop plants were laid out in sandy loam in wood-fiber pots, covered with soil and cultivated in a greenhouse under good growth conditions. The test plants were treated at the early leaf stage (BBCH10-BBCH13). To ensure uniform water supply before commencement of stress, the potted plants were supplied with the maximum amount of water immediately beforehand by dam irrigation and, after application, transferred in plastic inserts in order to prevent subsequent, excessively rapid drying. The inventive compounds, formulated in the form of wettable powders (WP), wettable granules (WG), suspension concentrates (SC) or emulsion concentrates (EC), were sprayed onto the green parts of the plants as an aqueous suspension at an equivalent water application rate of 600 l/ha with addition of 0.2% wetting agent (agrotin). Substance application is followed immediately by stress treatment of the plants (cold or drought stress). For cold stress treatment, the plants were kept under the following controlled conditions: • “day”: 12 hours with illumination at 8° C. • “night”: 12 hours without illumination at 1° C. The duration of the respective stress phases was guided mainly by the state of the untreated (=treated with blank formulation without test compound), stressed control plants and thus varied from crop to crop. It was ended (by re-irrigating or transfer to a greenhouse with good growth conditions) as soon as irreversible damage was observed on the untreated, stressed control plants. In the case of dicotyledonous crops, for example oilseed rape and soybeans, the duration of the drought stress phase varied between 3 and 5 days, in the case of monocotyledonous crops, for example wheat, barley or corn, between 6 and 10 days. The duration of the cold stress phase varied between 12 and 14 days. The end of the stress phase was followed by an approx. 5-7-day recovery phase, during which the plants were once again kept under good growth conditions in a greenhouse. In order to rule out any influence of the effects observed by any fungicidal action of the test compounds, it was additionally ensured that the tests proceeded without fungal infection and without infection pressure. After the recovery phase had ended, the intensities of damage were rated in visual comparison to untreated, unstressed controls of the same age (in the case of drought stress) or the same growth stage (in the case of cold stress). The intensity of damage was first assessed as a percentage (100%=plants have died, 0%=like control plants). These values were then used to calculate the efficacy of the test compounds (=percentage reduction in the intensity of damage as a result of substance application) by the following formula: [formula] EF: efficacy (%) DVus: damage value of the untreated, stressed control DVts: damage value of the plants treated with test compound The tables A-1 and B-1 to B-4 below list mean values in each case from three results of the same test. Efficacies of selected compounds of the formula (I) under cold stress using the example of ZEAMX: […]

In data set [2] the test system is HORVS. The data set can be described thus: Drought stress test on crop plants in greenhouse, spray application. The format is in vivo, Hordeum vulgare. The settings on record: dosage 500 g/ha, efficacy = percentage reduction in intensity of damage, mean of three results. The protocol:
Seeds of monocotyledonous and dicotyledonous crop plants were laid out in sandy loam in wood-fiber pots, covered with soil and cultivated in a greenhouse under good growth conditions. The test plants were treated at the early leaf stage (BBCH10-BBCH13). To ensure uniform water supply before commencement of stress, the potted plants were supplied with the maximum amount of water immediately beforehand by dam irrigation and, after application, transferred in plastic inserts in order to prevent subsequent, excessively rapid drying. The inventive compounds, formulated in the form of wettable powders (WP), wettable granules (WG), suspension concentrates (SC) or emulsion concentrates (EC), were sprayed onto the green parts of the plants as an aqueous suspension at an equivalent water application rate of 600 l/ha with addition of 0.2% wetting agent (agrotin). Substance application is followed immediately by stress treatment of the plants (cold or drought stress). […]
After the recovery phase had ended, the intensities of damage were rated in visual comparison to untreated, unstressed controls of the same age (in the case of drought stress) or the same growth stage (in the case of cold stress). The intensity of damage was first assessed as a percentage (100%=plants have died, 0%=like control plants). […]

For data set [3], the system named is BRSNS. Described as above. The format is in vivo, Brassica napes. As to conditions: efficacy = percentage reduction in intensity of damage, mean of three results. The procedure:
(§1) Seeds of monocotyledonous and dicotyledonous crop plants were laid out in sandy loam in wood-fiber pots, covered with soil and cultivated in a greenhouse under good growth conditions. The test plants were treated at the early leaf stage (BBCH10-BBCH13). To ensure uniform water supply before commencement of stress, the potted plants were supplied with the maximum amount of water immediately beforehand by dam irrigation and, after application, transferred in plastic inserts in order to prevent subsequent, excessively rapid drying. The inventive compounds, formulated in the form of wettable powders (WP), wettable granules (WG), suspension concentrates (SC) or emulsion concentrates (EC), were sprayed onto the green parts of the plants as an aqueous suspension at an equivalent water application rate of 600 l/ha with addition of 0.2% wetting agent (agrotin). Substance application is followed immediately by stress treatment of the plants (cold or drought stress). For cold stress treatment, the plants were kept under the following controlled conditions: • “day”: 12 hours with illumination at 8° C. • “night”: 12 hours without illumination at 1° C.
(§2) Drought stress was induced by gradual drying out under the following conditions: • “day”: 14 hours with illumination at 26° C. • “night”: 10 hours without illumination at 18° C.
(§3) The duration of the respective stress phases was guided mainly by the state of the untreated (=treated with blank formulation without test compound), stressed control plants and thus varied from crop to crop. It was ended (by re-irrigating or transfer to a greenhouse with good growth conditions) as soon as irreversible damage was observed on the untreated, stressed control plants. In the case of dicotyledonous crops, for example oilseed rape and soybeans, the duration of the drought stress phase varied between 3 and 5 days, in the case of monocotyledonous crops, for example wheat, barley or corn, between 6 and 10 days. The duration of the cold stress phase varied between 12 and 14 days.
(§4) The end of the stress phase was followed by an approx. 5-7-day recovery phase, during which the plants were once again kept under good growth conditions in a greenhouse. In order to rule out any influence of the effects observed by any fungicidal action of the test compounds, it was additionally ensured that the tests proceeded without fungal infection and without infection pressure.
(§5) After the recovery phase had ended, the intensities of damage were rated in visual comparison to untreated, unstressed controls of the same age (in the case of drought stress) or the same growth stage (in the case of cold stress). The intensity of damage was first assessed as a percentage (100%=plants have died, 0%=like control plants). These values were then used to calculate the efficacy of the test compounds (=percentage reduction in the intensity of damage as a result of substance application) by the following formula:
(§6) [formula] EF: efficacy (%) DVus: damage value of the untreated, stressed control DVts: damage value of the plants treated with test compound
(§7) The tables A-1 and B-1 to B-4 below list mean values in each case from three results of the same test.
(§8) Efficacies of selected compounds of the formula (I) under drought stress using the examples of HORVS, BRSNS, ZEAMX und TRZAS: […]

The test system of data set [4] is ZEAMX. The data set is described as above. It counts as in vivo, Zea mays. As to conditions: efficacy = percentage reduction in intensity of damage, mean of three results. The protocol: as §1, §2, §3, §4, §5, §6, §7, §8
Data set [5] has as its system TRZAS. The description is as above. It counts as in vivo, Triticum aestivum. The settings on record: efficacy = percentage reduction in intensity of damage, mean of three results. The protocol:
as §1, §2, §3, §4, §5, §6, §7, §8

Molecules are shown by their SMILES.

We go through 18 molecules from US9006265B2, “Substituted fused pyrimidinones and dihydropyrimidinones” (Bayer Intellectual Property GmbH, priority 2010, dated 2015).

As for `COc1cccc2c(=O)[nH]c(-c3ccc([N+](=O)[O-])cc3)nc12` [I.1-36], the “EF (ZEAMX)” value in data set [1] (dosage 25 g/ha) is on record as more than 5%. Regarding `O=c1[nH]c(CCc2ccccc2)nc2c(Cl)cccc12` [I.1-172], the “EF (ZEAMX)” value in data set [1] (dosage 25 g/ha) is listed as more than 5%. Take `O=C1NC(c2ccoc2)Nc2ccccc21` (centres unmarked) [I.4-51]: in data set [1] (dosage 250 g/ha), the “EF (ZEAMX)” value was more than 5%. Take `O=c1[nH]c(-c2ccc(Br)cc2)nc2c(Cl)cccc12` [I.1-204]: in data set [1] (dosage 25 g/ha), the “EF (ZEAMX)” value is recorded as more than 5%. A word on the melting point: it is the temperature of the solid-liquid transition. Consider `O=C1NC(c2ccc(Cl)cc2)Nc2ccccc21` (centres unmarked) [I.4-71, 2-(4-Chlorophenyl)-2,3-dihydroquinazolin-4(1H)-one], for which the melting point is 190 °C. Regarding `Cc1nc2c([N+](=O)[O-])cccc2c(=O)[nH]1` [I.1-32], the “EF (HORVS)” value in data set [2] is more than 5%. Turning to `O=C1NC(CCc2ccccc2)Nc2cccc(F)c21` (centres unmarked) [I.4-184], the “EF (ZEAMX)” value in data set [1] (dosage 250 g/ha) is listed as more than 5%.

For `Cc1cccc2c(=O)[nH]c(/C=C/c3cccnc3)nc12` [I.1-338], the “EF (BRSNS)” value in data set [3] (dosage 100 g/ha) was more than 5%. In data set [4] (dosage 100 g/ha), the “EF (ZEAMX)” value is more than 5%. Moreover, in data set [5] (dosage 100 g/ha), the “EF (TRZAS)” value is recorded as more than 5%.

`NC(=O)c1cnn2c1[nH]c(=O)c1ccccc12` [I.3-31]: the “EF (ZEAMX)” value in data set [1] (dosage 250 g/ha) and in data set [4] (dosage 250 g/ha) was more than 5% throughout. For the same molecule, in data set [3] (dosage 25 g/ha), the “EF (BRSNS)” value is listed as more than 5%. Also, the “EF (TRZAS)” value in data set [5] (dosage 25 g/ha) was more than 5%.

Consider `O=C1NC(c2ccoc2)Nc2cccc(Cl)c21` (centres unmarked) [I.4-232], for which the “EF (BRSNS)” value in data set [3] (dosage 250 g/ha) is reported as more than 5%. Moreover, the “EF (TRZAS)” value in data set [5] (dosage 250 g/ha) is listed as more than 5%.

In the case of `COc1cc2nc(/C=C/c3cc(OC)c(O)c(OC)c3)[nH]c(=O)c2cc1OC` [I.1-429], in data set [1] (dosage 250 g/ha), the “EF (ZEAMX)” value is listed as more than 5%. Consider `COc1cc2nc(-c3cccc(C(F)(F)F)c3)[nH]c(=O)c2cc1OC` [I.1-440], for which the “EF (ZEAMX)” value in data set [1] (dosage 25 g/ha) is given as more than 5%. Regarding `CCn1nccc1C1NC(=O)c2cccc(C)c2N1` (centres unmarked) [I.4-115], the “EF (BRSNS)” value in data set [3] (dosage 250 g/ha) was more than 5%. Also, the “EF (TRZAS)” value in data set [5] (dosage 250 g/ha) is listed as more than 5%.

For the molecule `COc1cccc2c1NC(/C=C/c1ccccc1)NC2=O` (centres unmarked) [I.4-75, 2R,S-8-methoxy-2-[(E)-2-phenylethenyl]-2,3-dihydroquinazolin-4(1H)-one], in data set [3] (dosage 250 g/ha), the “EF (BRSNS)” value is given as more than 5%. Also, the “EF (TRZAS)” value in data set [5] (dosage 250 g/ha) is on record as more than 5%. Consider `Cc1ccc(-c2nc3c(C)cccc3c(=O)[nH]2)c(Cl)c1` [I.1-505, 2-(2-Chloro-4-methylphenyl)-8-methylquinazolin-4(3H)-one], for which the melting point was 234 °C. Turning to `CN1c2ccccc2C(=O)NC1c1cnn(C)c1` (centres unmarked) [I.4-63], the “EF (ZEAMX)” value in data set [1] (dosage 50 g/ha) is recorded as more than 5%. With `CCN(CC)CCN1C(=O)c2cccc(OC)c2NC1c1ccnn1C` (centres unmarked) [I.4-330], the “EF (ZEAMX)” value in data set [4] (dosage 250 g/ha) is reported as more than 5%. The “EF (TRZAS)” value in data set [5] (dosage 250 g/ha) is recorded as more than 5%. Turning to `Cc1cc(Cl)cc2c(=O)[nH]c(-c3[nH]ncc3Br)nc12` [I.1-165], the “EF (BRSNS)” value in data set [3] (dosage 250 g/ha) is more than 5%. The “EF (ZEAMX)” value in data set [4] (dosage 250 g/ha) was more than 5%. In addition, in data set [5] (dosage 250 g/ha), the “EF (TRZAS)” value was more than 5%.
